Key:
PDHK2 = target: T1, PDHK2 (Homo sapiens, UniProt Q15119); test: Biochemical activity testing of PDHK2: PDC inactivation assay; conditions: human rec PDHK2, PDC from porcine heart, ATP 5 μM; read-out: IC50 PDHK2 (enzyme assay)
T1 construct: purchased Carna Bioscience
Procedure, shortened: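 Human recombinant PDHK2 (137 nM final) preincubated 30 min at RT with porcine heart PDC (20 mU/ml) and compound in pH 7.0 phosphate buffer, then phosphorylated with 5 μM ATP for 30 min at 37 °C. Residual PDC activity read as NADH fluorescence increase (Ex 340/Em 450) over 45 min; inhibitor-free reaction as full value, 3 mM DCA as zero, IC50 derived.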

human PDHK2 (12-407) = target: T2, human PDHK2 (12-407) (Homo sapiens, UniProt Q15119); test: Isothermal titration calorimetry (ITC) binding; conditions: 30° C., pH 7.5
T2 construct: The human PDHK2 (12-407) was produced in E. coli; His-tag (cleaved yes); made in house; host or cells: E. coli
Procedure, shortened: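 Untagged PDHK2 (12-407) from E. coli at 50 μM titrated into 5 μM compound at 30° C in pH 7.5 HEPES/KCl/MgCl2/phosphate buffer, ≤1% DMSO. One-site fit gave KA, ΔH^obs and N after heat-of-dilution correction; protein concentration referenced to a standard inhibitor and compound concentration adjusted to 1:1 stoichiometry.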

PDH-Elalpha (pSer300) = test: Cellular immunofluorescence assay in HEK293T cells; format: cell-based; conditions: Homo sapiens, HEK-293T, 5 hours incubation, anti-PDH-E1alpha pSer300 immunofluorescence, read-out: IC50 (cell data)
Procedure, shortened: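 HEK293T cells were exposed to compound for 5 hours, then fixed, permeabilised and immunostained for PDH-Elalpha pSer300 with Hoechst counterstain, read by laser scanning cytometry. Percent effect was normalized to a pharmacological inhibitor control and fitted to dose-response curves.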

Cn1cc(-n2nccc2C2CCN(C(=O)[C@@](C)(O)C(F)(F)F)CC2)cn1 [Compound A85, (R)-3,3,3-Trifluoro-2-hydroxy-2-methyl-1-[4-[2-(1-methylpyrazol-4-yl)-2H-pyrazol-3-yl]-1-piperidyl]propan-1-one]
IC50 (PDHK2): 300 to 3000 nM
Kd (human PDHK2 (12-407)): < 300 nM
IC50 (PDH-Elalpha (pSer300)): 3000 to 50000 nM

Cc1csc(-n2nccc2C2CCN(C(=O)[C@@](C)(O)C(F)(F)F)CC2)n1 [Compound A86, (R)-3,3,3-Trifluoro-2-hydroxy-2-methyl-1-[4-[2-(4-methylthiazol-2-yl)-2H-pyrazol-3-yl]-1-piperidyl]propan-1-one]
IC50 (PDHK2): 300 to 3000 nM
Kd (human PDHK2 (12-407)): < 300 nM
IC50 (PDH-Elalpha (pSer300)): 3000 to 50000 nM

C[C@@](O)(C(=O)N1CCC(c2ccnn2-c2ccc(C(F)(F)F)cc2F)CC1)C(F)(F)F [Compound A88, (R)-3,3,3-Trifluoro-1-[4-[2-[2-fluoro-4-(trifluoromethyl)phenyl]-2H-pyrazol-3-yl]-1-piperidyl]-2-hydroxy-2-methyl-propan-1-one]
IC50 (PDHK2): 300 to 3000 nM
Kd (human PDHK2 (12-407)): < 300 nM
IC50 (PDH-Elalpha (pSer300)): 300 to 3000 nM

C[C@@](O)(C(=O)N1CCC(c2ccnn2-c2ccc(C#N)cc2F)CC1)C(F)(F)F [Compound A91, 3-Fluoro-4-[5-[1-[(R)-3,3,3-trifuoro-2-hydroxy-2-methyl-propanoyl]-4-piperidyl]-2H-pyrazol-1-yl]benzonitrile]
IC50 (PDHK2): 300 to 3000 nM
Kd (human PDHK2 (12-407)): < 300 nM
IC50 (PDH-Elalpha (pSer300)): 3000 to 50000 nM

CC(C)(O)c1ccc(-n2nccc2C2CCN(C(=O)[C@@](C)(O)C(F)(F)F)CC2)c(F)c1 [Compound A92, (R)-3,3,3-Trifluoro-1-[4-[2-[2-fluoro-4-(1-hydroxy-1-methyl-ethyl)phenyl]-2H-pyrazol-3-yl]-1-piperidyl]-2-hydroxy-2-methyl-propan-1-one]
IC50 (PDHK2): 300 to 3000 nM
Kd (human PDHK2 (12-407)): < 300 nM
IC50 (PDH-Elalpha (pSer300)): 300 to 3000 nM

C[C@@](O)(C(=O)N1CCC(c2ccnn2[C@H]2CC[C@H](O)CC2)CC1)C(F)(F)F [Compound A94, (R)-3,3,3-Trifluoro-2-hydroxy-1-[4-[2-(4-hydroxycyclohexyl)-2H-pyrazol-3-yl]-1-piperidyl]-2-methyl-propan-1-one]
IC50 (PDHK2): 300 to 3000 nM
Kd (human PDHK2 (12-407)): < 300 nM
IC50 (PDH-Elalpha (pSer300)): 3000 to 50000 nM

C[C@@](O)(C(=O)N1CCC(c2ccnn2-c2ccc(OC(F)(F)F)cc2)CC1)C(F)(F)F [Compound A95, (R)-3,3,3-Trifluoro-2-hydroxy-2-methyl-1-[4-[2-[4-(trifluoromethoxy)-phenyl]-2H-pyrazol-3-yl]-1-piperidyl]propan-1-one]
IC50 (PDHK2): < 300 nM
Kd (human PDHK2 (12-407)): < 300 nM
IC50 (PDH-Elalpha (pSer300)): 300 to 3000 nM

C[C@@](O)(C(=O)N1CCC(c2ccnn2-c2ccc(OC(F)F)cc2)CC1)C(F)(F)F [Compound A96, (R)-1-[4-[2-[4-(Difluoromethoxy)phenyl]-2H-pyrazol-3-yl]-1-piperidyl]-3,3,3-trifluoro-2-hydroxy-2-methyl-propan-1-one]
IC50 (PDHK2): 300 to 3000 nM
Kd (human PDHK2 (12-407)): < 300 nM
IC50 (PDH-Elalpha (pSer300)): 300 to 3000 nM

Cc1cc(C2CCN(C(=O)[C@@](C)(O)C(F)(F)F)CC2)n(-c2ccc(F)cc2F)n1 [Compound A97, (R)-1-{4-[2-(2,4-Difluoro-phenyl)-5-methyl-2H-pyrazol-3-yl]-piperidin-1-yl}-3,3,3-trifluoro-2-hydroxy-2-methyl-propan-1-one]
IC50 (PDHK2): < 300 nM
Kd (human PDHK2 (12-407)): < 300 nM
IC50 (PDH-Elalpha (pSer300)): 300 to 3000 nM

Cc1cc(C2CCN(C(=O)[C@@](C)(O)C(F)(F)F)CC2)n(-c2ccccc2)n1 [Compound A98, (R)-3,3,3-Trifluoro-2-hydroxy-2-methyl-1-[4-(5-methyl-2-phenyl-2H-pyrazol-3-yl)-piperidin-1-yl]-propan-1-one]
IC50 (PDHK2): < 300 nM
Kd (human PDHK2 (12-407)): < 300 nM
IC50 (PDH-Elalpha (pSer300)): 300 to 3000 nM

C[C@@](O)(C(=O)N1CCC(c2ccnn2-c2ccc(Cl)c(F)c2)CC1)C(F)(F)F [Compound A100, (R)-1-{4-[2-(4-Chloro-3-fluoro-phenyl)-2H-pyrazol-3-yl]-piperidin-1-yl}-3,3,3-trifluoro-2-hydroxy-2-methyl-propan-1-one]
IC50 (PDHK2): 300 to 3000 nM
Kd (human PDHK2 (12-407)): < 300 nM
IC50 (PDH-Elalpha (pSer300)): 300 to 3000 nM

From patent publication US9751861B2, “N1-(3,3,3-trifluoro-2-hydroxo-2-methylpropionyl)-piperidine derivatives as inhibitors of pyruvate dehydrogenase kinase” (MERCK PATENT GMBH, priority 2013, dated 2017)
